Measured values published in patent US6664283B1, “Pharmaceuticals for neurogenic pain” (Yamanouchi Pharmaceutical Co., Ltd., priority 1999, dated 2003).
Like-named read-outs stand apart in the source and are kept apart here.

Columns and labels:
[1] = tested on: nerve ligation-induced neuropathic pain animal models; conditions: cited from earlier work; for cold hyperalgesia / development of mechanical allodynia: intrathecal twice-daily on post-operative days 0-8
mGluR6 = biological target: T1, mGluR6 (Rattus norvegicus, UniProt P35349); assay: intracellular cAMP after forskolin stimulation in mGluR6-expressing CHO cells; type: cell-based; conditions: up to 100 μM; cAMP formation
T1 construct: expressed in transfected cells; host or cells: CHO
Description: (§1) The NIH3T3 cell lines expressing individually mGluR1 α and mGluR5a were cultured using DMEM containing 10% dialyzed fetal calf serum and 100 units/ml, 0.1 mg/ml of streptomycin sulfate. The CHO cell lines expressing individually mGluR2, R4, R6 and R7 were cultured using DMEM containing 10% dialyzed fetal calf serum, 100 units/ml, 0.1 mg/ml of streptomycin sulfate and 2 mM glutamine. Using cell lines expressing individually mGluR2, R6 and R7, cAMP formation after forskolin stimulation in the presence of IBMX was measured using a cAMP assay kit as described previously (Neuron, 8, 169-179, 1992).

mGluR2 = biological target: T2, mGluR2 (Rattus norvegicus, UniProt P31421); assay: intracellular cAMP after forskolin stimulation in mGluR2-expressing CHO cells; type: cell-based; conditions: up to 100 μM; cAMP formation
T2 construct: expressed in transfected cells; host or cells: CHO
Description: as §1

[2] = tested on: STZ-induced diabetes mice; assay: tail pinch test in STZ-induced diabetes mice model; type: in vivo, ICR mice; conditions: 45 minutes after administration, STZ mice day 15
Description: The test was carried out by modifying a previously reported method (Pharmacol. Biochem. Behav., 39, 541-544, 1991). STZ at a dose of 200 mg/kg was intraperitoneally administered to 4-weeks-old ICR mice. A pre-drug tail pinch test was carried out in the afternoon at the fourteenth day after the STZ-administration, and animals showing a reaction latency of 3 seconds or less were subjected to the next day's test. At the fifteenth day after the STZ-administration, each drug was administered orally and a post-drug tail pinch test was carried out 45 minutes after the drug administration. […] Statistical analysis was performed with Steel test between the control group and drug-administered group (* and ** in the table are as follows; *p<0.05, **p<0.01 vs. control group).

mGluR1 = biological target: T3, mGluR1 (Rattus norvegicus, UniProt P23385); assay: PI hydrolysis assay in cerebellar granule cells (mGluR1 antagonistic activity); type: cell-based
T3 construct: endogenous in cells; host or cells: primary cerebellar granule cells from Wistar rats aged 7 to 8 days
Description: 1. Measurement of mGluR1 Antagonistic Activity Using Cerebellar Granule Cells The whole brain was removed from each of seven Wistar rats of 7 to 8 days of age after birth (Japan S L C), and then the cerebellum was isolated in an L-15 medium (Gibco) under a stereoscopic microscope. The isolated cerebellum was cut into pieces using a surgical knife and incubated at 37° C. for 15 minutes in 0.25% trypsin solution (Gibco) containing 750 U/ml of DNase I (Sigma). After termination of the enzyme reaction by adding fetal calf serum (JRH Biosciences), the tissue pieces were centrifuged and the supernatant was removed by sucking. After adding 10 ml of a high potassium medium, cells were dissociated by 5 to 6 times passage through a plastic pipette. After filtering the cell dispersion through a nylon mesh (40 μm pore), viable cells were counted. The cells were diluted in the high potassium medium and then seeded at a density of 8×10^5 cells/well onto 24-well culture plates (Sumitomo Bakelite) precoated with poly-L-lysine. […] High potassium medium: BME (Gibco)+10% immobilized fetal calf serum+25 mM KCl+1% penicillin/streptomycin (Gibco) The PI hydrolysis was measured as described by Aramori et al(Neuron, 8, 757-765, 1992). […] The eluate was mixed with a liquid scintillator (Aquasol-2) and the radioactivity in the eluate was determined by a liquid scintillation spectrometer.

mGluR7 = biological target: T4, mGluR7 (Rattus norvegicus, UniProt P35400); assay: intracellular cAMP after forskolin stimulation in mGluR7-expressing CHO cells; type: cell-based; conditions: up to 100 μM; cAMP formation
T4 construct: expressed in transfected cells; host or cells: CHO
Description: as §1

[3] = tested on: spinal L5/L6 nerve-ligated rats; assay: von Frey hair (VFH) test in spinal L5/L6 nerve-ligated rats; type: in vivo, SD rats; conditions: 30 or 100 mg/kg po; 45 minutes after administration; 7 days after operation
Description: The test was carried out by modifying a previously reported method (Pain, 50, 355-363, 1992). SD rats were used. The left side lumbar nerves (L5 and L6) of each animal were ligated with silk threads under pentobarbital anesthesia. The following test was carried out 7 days after the operation.
After 45 minutes of oral administration of drug, von Frey hair (VFH) test was carried out to measure a mechanical pain threshold. The measurement was carried out on both hindpaws.
Although there was little difference in the mechanical pain thresholds between the left and right hindpaw in sham-operated rats in which the threshold was 17 to 20 g (log(g): 1.23-1.30), the obvious reduction of the mechanical pain threshold in the operated side hinpaw was found in spinal L5/L6 nerve-ligated rats.
Statistical analysis was performed with Dunnet test and carried out on each side hindpaw between the control group and drug-administered groups (** and *** in the table are as follows; **p<0.01, ***p<0.001 vs. control group).

mGluR5a = biological target: T5, mGluR5a (Rattus norvegicus, UniProt P31424); assay: intracellular calcium concentration in mGluR5a-expressed NIH3T3 cells; type: cell-based; conditions: up to 10 μM
T5 construct: expressed in transfected cells; host or cells: NIH3T3
Description: The NIH3T3 cell lines expressing individually mGluR1 α and mGluR5a were cultured using DMEM containing 10% dialyzed fetal calf serum and 100 units/ml, 0.1 mg/ml of streptomycin sulfate. The CHO cell lines expressing individually mGluR2, R4, R6 and R7 were cultured using DMEM containing 10% dialyzed fetal calf serum, 100 units/ml, 0.1 mg/ml of streptomycin sulfate and 2 mM glutamine. Intracellular calcium concentration of the mGluR5a-expressed cells was measured using a spectrofluorometer as described previously (Nature, 383, 89-92, 1996).

mGluR1 α = biological target: T6, mGluR1 α (Rattus norvegicus, UniProt P23385); assay: PI hydrolysis assay in mGluR1 α-expressed NIH3T3 cells; type: cell-based; conditions: 100 μM glutamate, read-out: IC50 value, inhibition of PI formation induced by 100 μM glutamate
T6 construct: expressed in transfected cells; host or cells: NIH3T3
Description: Measurement of inhibition activity by mGluR1 α expression cell The NIH3T3 cell lines expressing individually mGluR1 α and mGluR5a were cultured using DMEM containing 10% dialyzed fetal calf serum and 100 units/ml, 0.1 mg/ml of streptomycin sulfate. The CHO cell lines expressing individually mGluR2, R4, R6 and R7 were cultured using DMEM containing 10% dialyzed fetal calf serum, 100 units/ml, 0.1 mg/ml of streptomycin sulfate and 2 mM glutamine. Using the mGluR1 α-expressed cells labeled with ^3H-inositol, hydrolysis of phosphatidylinositol was measured as described previously(Nature, 383, 89-92, 1996).

T3 sequence (P23385 19-1199): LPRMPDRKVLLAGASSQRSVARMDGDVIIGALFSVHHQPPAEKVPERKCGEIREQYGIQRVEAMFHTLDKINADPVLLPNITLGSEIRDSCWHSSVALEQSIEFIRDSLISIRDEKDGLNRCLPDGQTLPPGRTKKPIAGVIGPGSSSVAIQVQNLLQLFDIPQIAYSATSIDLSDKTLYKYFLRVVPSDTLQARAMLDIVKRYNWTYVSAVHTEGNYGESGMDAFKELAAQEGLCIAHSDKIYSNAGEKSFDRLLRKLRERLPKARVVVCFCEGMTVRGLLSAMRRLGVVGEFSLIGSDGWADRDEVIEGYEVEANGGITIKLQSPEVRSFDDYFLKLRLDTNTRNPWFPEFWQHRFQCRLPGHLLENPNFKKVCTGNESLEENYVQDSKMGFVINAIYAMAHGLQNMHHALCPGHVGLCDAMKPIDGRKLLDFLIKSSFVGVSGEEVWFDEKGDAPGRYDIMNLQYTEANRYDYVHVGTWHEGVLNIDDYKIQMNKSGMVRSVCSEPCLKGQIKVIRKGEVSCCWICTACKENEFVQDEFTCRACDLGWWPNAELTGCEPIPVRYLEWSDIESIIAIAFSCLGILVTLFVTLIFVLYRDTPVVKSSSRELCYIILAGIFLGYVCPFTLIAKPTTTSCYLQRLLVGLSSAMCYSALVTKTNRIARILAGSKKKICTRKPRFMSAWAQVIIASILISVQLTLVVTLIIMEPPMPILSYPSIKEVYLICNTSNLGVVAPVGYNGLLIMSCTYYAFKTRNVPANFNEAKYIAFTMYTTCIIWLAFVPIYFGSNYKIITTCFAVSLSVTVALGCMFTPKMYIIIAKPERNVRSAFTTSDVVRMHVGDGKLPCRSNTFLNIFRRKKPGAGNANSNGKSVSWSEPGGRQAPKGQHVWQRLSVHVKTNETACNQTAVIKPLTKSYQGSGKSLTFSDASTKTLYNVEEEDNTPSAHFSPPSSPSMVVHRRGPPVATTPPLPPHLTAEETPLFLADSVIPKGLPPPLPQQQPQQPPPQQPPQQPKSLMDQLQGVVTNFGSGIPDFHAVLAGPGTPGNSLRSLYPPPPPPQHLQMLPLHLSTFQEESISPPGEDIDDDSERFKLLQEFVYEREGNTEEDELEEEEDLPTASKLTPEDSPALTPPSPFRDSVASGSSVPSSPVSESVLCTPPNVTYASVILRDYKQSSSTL
T1 sequence (P35349 24-871): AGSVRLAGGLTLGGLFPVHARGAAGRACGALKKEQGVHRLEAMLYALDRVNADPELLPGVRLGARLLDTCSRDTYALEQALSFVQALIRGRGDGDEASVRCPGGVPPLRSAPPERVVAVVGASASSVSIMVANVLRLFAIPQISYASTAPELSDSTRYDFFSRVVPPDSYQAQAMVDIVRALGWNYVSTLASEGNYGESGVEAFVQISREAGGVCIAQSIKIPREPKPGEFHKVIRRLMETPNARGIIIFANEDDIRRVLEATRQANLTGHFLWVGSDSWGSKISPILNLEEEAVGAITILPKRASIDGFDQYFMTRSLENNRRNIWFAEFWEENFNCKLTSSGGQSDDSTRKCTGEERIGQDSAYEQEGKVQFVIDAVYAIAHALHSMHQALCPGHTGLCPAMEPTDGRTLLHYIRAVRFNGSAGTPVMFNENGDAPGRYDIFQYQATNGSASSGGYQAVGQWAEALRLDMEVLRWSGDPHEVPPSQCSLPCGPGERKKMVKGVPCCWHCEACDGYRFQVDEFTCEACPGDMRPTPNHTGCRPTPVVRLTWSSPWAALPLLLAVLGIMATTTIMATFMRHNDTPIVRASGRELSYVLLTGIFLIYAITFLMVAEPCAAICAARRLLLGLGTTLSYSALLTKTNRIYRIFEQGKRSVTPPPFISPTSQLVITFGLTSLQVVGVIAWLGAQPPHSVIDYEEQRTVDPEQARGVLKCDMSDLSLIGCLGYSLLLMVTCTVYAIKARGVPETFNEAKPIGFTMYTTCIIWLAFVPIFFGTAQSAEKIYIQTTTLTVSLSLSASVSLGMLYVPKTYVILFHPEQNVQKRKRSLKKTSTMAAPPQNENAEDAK
T6 sequence (P23385 19-1199): as the sequence (P23385 19-1199) above
T2 sequence (P31421 19-872): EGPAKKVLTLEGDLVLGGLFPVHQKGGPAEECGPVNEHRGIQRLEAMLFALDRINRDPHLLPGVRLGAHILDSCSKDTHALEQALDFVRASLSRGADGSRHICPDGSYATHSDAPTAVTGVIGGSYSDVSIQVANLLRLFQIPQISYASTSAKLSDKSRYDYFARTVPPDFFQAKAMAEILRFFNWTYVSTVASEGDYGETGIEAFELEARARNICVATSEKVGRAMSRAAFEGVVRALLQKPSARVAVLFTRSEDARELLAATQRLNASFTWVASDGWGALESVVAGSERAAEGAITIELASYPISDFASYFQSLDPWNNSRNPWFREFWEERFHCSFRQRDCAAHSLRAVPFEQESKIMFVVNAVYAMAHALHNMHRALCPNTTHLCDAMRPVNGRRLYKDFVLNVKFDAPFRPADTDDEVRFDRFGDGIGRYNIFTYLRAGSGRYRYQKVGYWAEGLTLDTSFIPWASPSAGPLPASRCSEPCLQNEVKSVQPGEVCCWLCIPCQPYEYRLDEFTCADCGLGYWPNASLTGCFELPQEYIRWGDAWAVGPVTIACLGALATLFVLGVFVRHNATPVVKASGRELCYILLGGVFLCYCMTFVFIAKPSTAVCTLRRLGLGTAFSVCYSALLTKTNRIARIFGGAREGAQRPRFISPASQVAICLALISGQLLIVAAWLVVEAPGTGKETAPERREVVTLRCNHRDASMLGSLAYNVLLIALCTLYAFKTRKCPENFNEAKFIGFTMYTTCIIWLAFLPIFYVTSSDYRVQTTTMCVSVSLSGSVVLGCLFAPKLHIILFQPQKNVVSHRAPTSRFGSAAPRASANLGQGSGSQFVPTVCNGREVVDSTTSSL
T4 sequence (P35400 35-915): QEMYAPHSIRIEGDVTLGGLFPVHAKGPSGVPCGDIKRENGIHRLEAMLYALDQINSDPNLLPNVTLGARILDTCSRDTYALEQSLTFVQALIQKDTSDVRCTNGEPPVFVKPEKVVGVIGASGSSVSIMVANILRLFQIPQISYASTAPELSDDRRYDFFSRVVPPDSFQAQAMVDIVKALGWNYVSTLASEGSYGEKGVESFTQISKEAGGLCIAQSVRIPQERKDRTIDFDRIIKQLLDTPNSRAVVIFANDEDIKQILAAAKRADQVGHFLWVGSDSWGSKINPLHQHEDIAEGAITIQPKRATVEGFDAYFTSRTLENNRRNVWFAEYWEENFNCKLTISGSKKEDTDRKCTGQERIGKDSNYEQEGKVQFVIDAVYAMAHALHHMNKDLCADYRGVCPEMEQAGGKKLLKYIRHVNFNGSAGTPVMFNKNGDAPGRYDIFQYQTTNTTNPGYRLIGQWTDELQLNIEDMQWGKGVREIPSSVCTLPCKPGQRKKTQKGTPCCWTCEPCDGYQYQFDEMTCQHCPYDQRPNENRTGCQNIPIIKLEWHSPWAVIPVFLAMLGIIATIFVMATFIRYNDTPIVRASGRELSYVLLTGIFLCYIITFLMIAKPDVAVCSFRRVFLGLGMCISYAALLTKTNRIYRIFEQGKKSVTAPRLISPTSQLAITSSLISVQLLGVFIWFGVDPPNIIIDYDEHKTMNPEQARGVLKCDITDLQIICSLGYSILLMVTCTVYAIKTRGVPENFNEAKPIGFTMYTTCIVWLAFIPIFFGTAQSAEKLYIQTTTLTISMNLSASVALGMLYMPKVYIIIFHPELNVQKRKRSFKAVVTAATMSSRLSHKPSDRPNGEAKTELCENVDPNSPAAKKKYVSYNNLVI
T5 sequence (P31424 21-1171 isoform P31424-2 limits assumed): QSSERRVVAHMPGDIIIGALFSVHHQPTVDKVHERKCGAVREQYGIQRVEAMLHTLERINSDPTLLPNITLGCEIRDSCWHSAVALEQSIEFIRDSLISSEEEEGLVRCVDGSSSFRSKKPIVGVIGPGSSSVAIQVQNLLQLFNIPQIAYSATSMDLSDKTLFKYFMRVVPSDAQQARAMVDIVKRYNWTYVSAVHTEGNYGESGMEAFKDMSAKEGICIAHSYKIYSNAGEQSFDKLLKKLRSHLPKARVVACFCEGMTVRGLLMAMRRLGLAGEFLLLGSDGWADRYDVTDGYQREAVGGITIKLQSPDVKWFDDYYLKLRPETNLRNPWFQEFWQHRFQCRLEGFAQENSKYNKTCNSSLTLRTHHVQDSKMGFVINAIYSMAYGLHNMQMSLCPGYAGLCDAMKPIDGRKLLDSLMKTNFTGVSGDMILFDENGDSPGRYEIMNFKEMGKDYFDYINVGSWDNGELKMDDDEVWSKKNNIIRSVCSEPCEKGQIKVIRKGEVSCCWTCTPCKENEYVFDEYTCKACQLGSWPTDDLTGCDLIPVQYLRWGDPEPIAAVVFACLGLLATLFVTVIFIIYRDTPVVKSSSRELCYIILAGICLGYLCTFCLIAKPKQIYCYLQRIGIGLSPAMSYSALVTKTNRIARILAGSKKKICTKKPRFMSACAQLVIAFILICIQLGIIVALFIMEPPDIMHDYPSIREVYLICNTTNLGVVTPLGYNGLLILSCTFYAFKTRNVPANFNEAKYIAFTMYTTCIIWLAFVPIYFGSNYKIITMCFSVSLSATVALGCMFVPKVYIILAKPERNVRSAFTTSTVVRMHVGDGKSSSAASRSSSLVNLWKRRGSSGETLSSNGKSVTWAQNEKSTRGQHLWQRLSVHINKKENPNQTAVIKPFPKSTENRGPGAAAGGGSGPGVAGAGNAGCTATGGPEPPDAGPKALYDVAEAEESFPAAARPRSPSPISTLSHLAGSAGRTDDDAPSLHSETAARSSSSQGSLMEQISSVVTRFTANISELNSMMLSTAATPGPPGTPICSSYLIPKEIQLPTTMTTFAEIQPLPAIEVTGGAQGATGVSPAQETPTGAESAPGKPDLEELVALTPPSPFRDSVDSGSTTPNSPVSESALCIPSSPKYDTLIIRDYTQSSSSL

Row | IC50 (mGluR1) | IC50 (mGluR1 α) | Structure (SMILES) | cold hyperalgesia ([1]; assessed on days 4 and 8) | development of mechanical allodynia ([1]; assessed on days 4 and 8) | cold hyperalgesia ([1]; assessed on days 12 and 16) | development of mechanical allodynia ([1]; assessed on days 12 and 16) | development of lowered pain threshold ([1]; intrathecal twice-daily on post-operative days 8-11, any day of the test) | agonist or antagonist activity for mGluR6 (mGluR6) | agonist or antagonist activity for mGluR2 (mGluR2) | reaction latency in tail pinch test ([2]; 30 mg/kg po) | agonist or antagonist activity for mGluR7 (mGluR7) | mechanical pain threshold in the operated side hindpaw (VFH test) [3] | agonist or antagonist activity for mGluR5 (mGluR5a) | reaction latency in tail pinch test ([2]; 10 mg/kg po)
1 |  |  | N[C@H](C(=O)O)c1ccc(C(=O)O)cc1 [(S)-4CPG, (S)-4-carboxyphenylglycine] | attenuated cold hyperalgesia | inhibited a development of mechanical allodynia | did not have an effect | did not have an effect | did not inhibit development of lowered pain threshold |  |  |  |  |  |  | 
2 | 22 nM |  | Cc1c(C(=O)N(C)C2CCCCC2)sc2nc3ccc(N)cc3n12.Cl.Cl [compound A, 6-amino-N-cyclohexyl-N, 3-dimethylthiazolo[3,2-a]benzoimidazole-2-carboxamide dihydrochloride] |  |  |  |  |  | did not show any agonist or antagonist activity | did not show any agonist or antagonist activity | significantly prolonged the reaction latency | did not show any agonist or antagonist activity | improved lowered mechanical pain thresholds | did not show any agonist or antagonist activity | 
3 | 2 nM | 1.7 nM | C[C@H]1CCCC[C@H]1N(C)C(=O)c1cn2c(nc3ccc(N)cc32)s1.Cl.Cl [compound B, (+)-(1R,2S)-6-amino-N-methyl-N-(2-methylcyclohexyl)thiazolo [3,2-a]benzoimidazole-2-carboxamide dihydrochloride] |  |  |  |  |  |  |  |  |  |  |  | significantly prolonged the latency
